The results in this text go back to US20070213359A1 (ACADIA Pharmaceuticals Inc., priority 2005, published 2007).

Molecules are shown by their SMILES. Where two headings read alike, the source gives them in different places.

This assay addresses Ghrelin receptor (Homo sapiens, UniProt Q92847). The experiment in a line: Receptor Selection and Amplification Technology (R-SAT) assay. It is filed as cell-based. Also noted: expressed in transfected cells; host or cells: NIH3T3. Particulars: for Emax: read-out: RSAT Eff(%).
Setting [1] is: […], '—' not defined (nd used separately), read-out: RSAT pIC50 (converted).

Ghrelin receptor, sequence (Q92847 whole entry): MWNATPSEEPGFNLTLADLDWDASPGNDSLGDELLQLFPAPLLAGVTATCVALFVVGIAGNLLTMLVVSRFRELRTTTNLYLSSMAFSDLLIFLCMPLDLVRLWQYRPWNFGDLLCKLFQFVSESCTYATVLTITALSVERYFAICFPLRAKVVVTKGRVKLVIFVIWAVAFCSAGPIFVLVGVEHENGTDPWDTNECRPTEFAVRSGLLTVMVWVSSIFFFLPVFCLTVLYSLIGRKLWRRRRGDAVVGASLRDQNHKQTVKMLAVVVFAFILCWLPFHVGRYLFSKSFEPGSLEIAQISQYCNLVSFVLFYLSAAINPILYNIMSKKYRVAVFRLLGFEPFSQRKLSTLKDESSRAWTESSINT

Turning to `COc1cccc2c(C(=O)NCc3cccc(Cl)c3)cn(CCCN3C4CCC3CC(CCc3ccc(Cl)cc3)C4)c12` (stereo not shown), the Emax was 127%. Further, the IC50 under setting [1] is 0.794 nM.
As for `COc1cccc2c(C(=O)C3CC3)cn(CCCN3CCCN(CCc4ccccc4)CC3)c12`, the Emax is 100%. For the same compound, the IC50 under setting [1] is 1.26 nM.
With `COc1cccc2c(C(=O)Cc3ccccc3)cn(CCCN3CCN(Cc4ccc(Cl)cc4Cl)CC3)c12`, the Emax was found to be 76%. Further, the IC50 under setting [1] is 2 nM.
On the same counts, the results for `COc1cccc2c(C(=O)C3CC3)cn(CCCN3CCN(CCOc4ccccc4)CC3)c12` are 94% and 7.94 nM.
In the case of `COc1cccc2c(C(=O)Cc3ccccc3)cn(CCCN3CCN(c4ncc(C(F)(F)F)cc4Cl)CC3)c12`, the Emax turned out to be 95%. Also, the IC50 under setting [1] was 7.94 nM.
`COc1cccc2c(C(=O)NCc3cccc(C)c3)cn(CCCN3C4CCC3CC(CCc3ccccc3)C4)c12` (stereo not shown): the Emax was 89%. Moreover, under setting [1], the IC50 is 10 nM.
`COc1cccc2c(C(=O)NCC(C)C)cn(CCCN3CCC4(CC3)CC(=O)c3ccccc3O4)c12`: the Emax was 115%. The IC50 under setting [1] was 12.6 nM.
As to `COc1cccc2c(C(=O)NCC(C)C)cn(CCCN3CCCN(Cc4ccccc4Cl)CC3)c12`, the Emax came out at 100%. The IC50 under setting [1] is 15.8 nM.
Take `COc1cccc2c(C(=O)NCC(C)C)cn(CCCN3C4CCC3CC(CCc3ccccc3)C4)c12` (stereo not shown): the Emax amounted to 86%. Moreover, the IC50 under setting [1] is 15.8 nM.
For `COc1cccc2c(C(=O)c3ccccc3)cn(CCCN3C4CCC3CC(CCc3ccc(Cl)cc3)C4)c12` (stereo not shown) the same measures were 94% and 15.8 nM.
On the same counts, the results for `COc1cccc2c(C(=O)C3CC3)cn(CCCNCCOc3ccccc3)c12` are 83% and 15.8 nM.
On the same counts, the results for `COc1cccc2c(C(=O)NCc3cccc(C)c3)cn(CCCN3CCC(c4nc(-c5ccncc5)no4)CC3)c12` are 121% and 15.8 nM.
For `COc1cccc2c(C(=O)NCc3cccc(Cl)c3)cn(CCCN3CCC(c4nc(-c5cccnc5)no4)CC3)c12`, the Emax turned out to be 103%. The IC50 under setting [1] was 20 nM.
Regarding `COc1cccc2c(C(=O)NCc3cccc(Cl)c3)cn(CCCN3CCCN(Cc4ccccc4Cl)CC3)c12`, the Emax turned out to be 107%. Moreover, the IC50 under setting [1] is 20 nM.
Consider `COc1cccc2c(C(=O)C3CC3)cn(CCCN3CCC(c4nc(-c5ccncc5)no4)CC3)c12`, for which the Emax worked out at 87%. Further, the IC50 under setting [1] is 20 nM.
Regarding `CC(=O)c1cn(CCCN2CCC(N3C(=O)Cc4ccccc43)CC2)c2c(C#N)cccc12`, the “RSAT Eff(%)” value turned out to be 133%. In addition, the IC50 under setting [1] is 20 nM.
As for `COc1cccc2c(C(=O)Cc3ccccc3)cn(CCCN3CCC(c4nc(-c5cccnc5)no4)CC3)c12`, the Emax worked out at 88%. The compound further had an IC50 (RSAT pIC50) of 20 nM.
For `COc1cccc2c(C(=O)C3CC3)cn(CCCNC3Cc4ccccc4C3)c12`, the Emax was 97%. Further, the IC50 under setting [1] is 25.1 nM.
Take `COc1cccc2c(C(=O)NCc3cccc(C)c3)cn(CCCN3C4CCC3CC(CCc3ccc(Cl)cc3)C4)c12` (stereo not shown): the Emax stood at 77%. Besides, under setting [1], the IC50 is 25.1 nM.
As for `COc1cccc2c(C(=O)Cc3ccccc3)cn(CCCN3CCC(c4nc(-c5ccncc5)no4)CC3)c12`, the Emax was 137%. Besides, under setting [1], the IC50 is 25.1 nM.
`COc1cccc2c(C(=O)c3ccccc3)cn(CCCN3CCC(c4nc(-c5ccncc5)no4)CC3)c12`: the Emax is 98%. In addition, the IC50 under setting [1] is 25.1 nM.
Regarding `COc1cccc2c(C(=O)NCC(C)C)cn(CCCN3CCN(Cc4ccc(Cl)cc4Cl)CC3)c12`, the Emax was 105%. Also, the IC50 under setting [1] is 25.1 nM.
As for `COc1cccc2c(C(=O)NCC(C)C)cn(CCCNC3Cc4ccccc4C3)c12`, the Emax amounted to 102%. Moreover, the IC50 under setting [1] was 31.6 nM.
As to `COc1cccc2c(C(=O)NCC(C)C)cn(CCCN3CCN(c4ncc(C(F)(F)F)cc4Cl)CC3)c12`, the Emax was 100%. The IC50 under setting [1] was 31.6 nM.
On to `COc1cccc2c(C(=O)NCc3cccc(Cl)c3)cn(CCCN3CCC(c4nc(-c5ccncc5)no4)CC3)c12`, for which the Emax was found to be 105%. For the same compound, the IC50 under setting [1] was 31.6 nM.
For `COc1cccc2c(C(=O)NCc3cccc(C)c3)cn(CCCN3CCN(c4ncc(C(F)(F)F)cc4Cl)CC3)c12` the same measures were 80% and 39.8 nM.
For `COc1cccc2c(C(=O)C3CC3)cn(CCCN3CCC(c4nc(-c5cccnc5)no4)CC3)c12` the same measures were 96% and 39.8 nM.
Turning to `COc1cccc2c(C(=O)c3ccccc3)cn(CCCN3CCC(c4nc(-c5cccnc5)no4)CC3)c12`, the Emax worked out at 80%. Moreover, under setting [1], the IC50 was 39.8 nM.
Regarding `COc1cccc2c(C(=O)C3CC3)cn(CCCN3CCC(N4C(=O)Cc5ccccc54)CC3)c12`, the “RSAT Eff(%)” value turned out to be 110%. Moreover, the IC50 under setting [1] is 39.8 nM.
For the compound `COc1cccc2c(C(=O)NCc3cccc(Cl)c3)cn(CCCN3CCN(c4ncc(C(F)(F)F)cc4Cl)CC3)c12`, the Emax was 107%. The IC50 under setting [1] was 39.8 nM.
For `CC(=O)c1cn(CCCN2CCC(c3nc(-c4cccnc4)no3)CC2)c2c(C#N)cccc12`, the Emax is 77%. For the same compound, the IC50 under setting [1] is 50.1 nM.
For `COc1cccc2c(C(=O)Cc3ccccc3)cn(CCCNCCOc3ccccc3)c12`, the Emax came to 92%. Further, the IC50 under setting [1] is 50.1 nM.
On the same counts, the results for `CC(=O)c1cn(CCCNCCOc2ccccc2)c2c(Br)cccc12` are 132% and 50.1 nM.
With `COc1cccc2c(C(=O)Cc3ccccc3)cn(CCCNC3Cc4ccccc4C3)c12`, the Emax was 103%. Moreover, the IC50 under setting [1] is 50.1 nM.
For `COc1cccc2c(C(=O)NCc3cccc(Cl)c3)cn(CCCN3CCC4(CC3)CC(=O)c3ccccc3O4)c12` the same measures were 7.8% and 63.1 nM.
`COc1cccc2c(C(=O)NCC(C)C)cn(CCCN3CCC(c4nc(-c5cccnc5)no4)CC3)c12`: the Emax stood at 93%. Also, the IC50 under setting [1] is 63.1 nM.
In the case of `COc1cccc2c(C(=O)NCC(C)C)cn(CCCN3C4CCC3CC(CCc3ccc(Cl)cc3)C4)c12` (stereo not shown), the Emax was 85%. The IC50 under setting [1] was 63.1 nM.
For `COc1cccc2c(C(=O)c3ccccc3)cn(CCCN3CCCC(Cc4ccccc4Cl)C3)c12` (stereo not shown), the Emax came out at 82%. Moreover, under setting [1], the IC50 was 63.1 nM.
For `COc1cccc2c(C(=O)C3CC3)cn(CCCN3C4CCC3CC(Oc3ccc(F)cc3)C4)c12` (stereo not shown) the same measures were 131% and 63.1 nM.
As to `COc1cccc2c(C(=O)Cc3ccccc3)cn(CCCN3CCC4(CC3)CC(=O)c3ccccc3O4)c12`, the Emax is 98%. Moreover, under setting [1], the IC50 was 79.4 nM.
Consider `COc1cccc2c(C(=O)NCC(C)C)cn(CCCN3CCC(C(=O)c4ccccc4)CC3)c12`, for which the Emax turned out to be 114%. The IC50 under setting [1] was 79.4 nM.
As for `CC(=O)c1cn(CCCN2CCC(N3C(=O)Cc4ccccc43)CC2)c2c(Br)cccc12`, the “RSAT Eff(%)” value is listed as 60%. Moreover, the IC50 under setting [1] is 100 nM.
For the compound `COc1cccc2c(C(=O)NCc3cccc(C)c3)cn(CCCN3CCC(C(=O)c4ccccc4)CC3)c12`, the Emax was 126%. In addition, under setting [1], the IC50 is 100 nM.
On to `CCc1cccc2c(C(C)=O)cn(CCCN3CCC(N4C(=O)Cc5ccccc54)CC3)c12`, for which the “RSAT Eff(%)” value was determined as 147%. For the same compound, the IC50 under setting [1] is 100 nM.
Consider `CC(=O)c1cn(CCCN2CCCN(CCc3ccccc3)CC2)c2c(C)cccc12`, for which the Emax worked out at 102%. Under setting [1], the IC50 is 100 nM.
Turning to `CC(C)CC(=O)c1cn(CCCN2CCC(c3nc4c(s3)C=CCC4)CC2)c2ccccc12`, the Emax was 108%. Under setting [1], the IC50 is 126 nM.
Turning to `COc1cccc2c(C(=O)NCC(C)C)cn(CCCN3CCN(CCOc4ccccc4)CC3)c12`, the Emax was found to be 118%. For the same compound, the IC50 under setting [1] was 126 nM.
In the case of `CCc1cccc2c(C(C)=O)cn(CCCN3CCC4(CC3)CC(=O)c3ccccc3O4)c12`, the Emax was 85%. Also, under setting [1], the IC50 is 126 nM.
Take `COc1cccc2c(C(=O)C3CC3)cn(CCCN3CCCC(Oc4ccc(Cl)cc4)C3)c12` (stereo not shown): the Emax turned out to be 37%. For the same compound, the IC50 under setting [1] is 126 nM.
On the same counts, the results for `COc1cccc2c(C(=O)NCC(C)C)cn(CCCN3C4CCC3CC(CC(=O)c3ccc(Cl)cc3)C4)c12` (stereo not shown) are 128% and 126 nM.
Consider `COc1cccc2c(C(=O)NCc3cccc(Cl)c3)cn(CCCN3CCC(Oc4ccccc4Cl)CC3)c12`, for which the Emax is 125%. Moreover, the IC50 under setting [1] was 126 nM.
For `COc1ccccc1C1CCN(CCCn2cc(C(=O)NCc3cccc(C)c3)c3cccc(OC)c32)CC1` the same measures were 127% and 126 nM.
Regarding `COc1cccc2c(C(=O)NCc3cccc(C)c3)cn(CCCN3CCC4(CC3)CC(=O)c3ccccc3O4)c12`, the Emax turned out to be 63%. The IC50 under setting [1] is 158 nM.
As for `CC(=O)c1cn(CCCNC2Cc3ccccc3C2)c2c(C)cccc12`, the Emax stood at 70%. For the same compound, under setting [1], the IC50 was 158 nM.
For `COc1cccc2c(C(=O)NCC(C)C)cn(CCCNCCOc3ccccc3)c12`, the Emax came out at 118%. Further, under setting [1], the IC50 was 158 nM.
`COc1cccc2c(C(=O)C3CC3)cn(CCCN3C4CCC3CC(Oc3ccccc3Cl)C4)c12` (stereo not shown): the Emax was 130%. In addition, the IC50 under setting [1] was 158 nM.
Take `COc1cccc2c(C(C)=O)cn(CCCN3CCC(C#N)(c4ccccc4)CC3)c12`: the Emax was 101%. Also, the IC50 (RSAT pIC50) is 200 nM.
`COc1cccc2c(C(=O)NCc3cccc(C)c3)cn(CCCN3CCC(N4C(=O)Cc5ccccc54)CC3)c12`: the “RSAT Eff(%)” value amounted to 43%. Besides, the IC50 under setting [1] was 2000 nM.
Take `CC(=O)c1cn(CCCN2CCC(N3C(=O)Cc4ccccc43)CC2)c2c(C)cccc12`: the “RSAT Eff(%)” value is on record as 69%. For the same compound, under setting [1], the IC50 was 12600 nM.
For `CC(=O)c1cn(CCCN2CCC(N3C(=O)Cc4ccccc43)CC2)c2c(Cl)cccc12`, the “RSAT Eff(%)” value is recorded as 28%.
Regarding `CC(=O)c1c(C)n(CCCN2CCC(N3C(=O)Cc4ccccc43)CC2)c2c(Br)cccc12`, the “RSAT Eff(%)” value amounted to 12%.
On the same count and under the same terms, to `COc1cccc2c(C#N)cn(CCCN3CCC(N4C(=O)Cc5ccccc54)CC3)c12` belongs 33%.
